Measurements reported in ChEMBL document CHEMBL1201862, “PubChem BioAssay data set” (2004).
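Method: 48-hour compound exposure of cells in 96-well plates, five concentrations, linear interpolation of endpoints. GI50 is the concentration that inhibits growth by half.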 The source made the active and inactive calls. Rule as the data show it: active = GI50 up to about 1.1 µM and inactive = higher.

Experiments:
Experiment in all cases: NCI anticancer screen, dose series, 48 h
CAKI-1 = system: CAKI-1
DMS-273 = system: DMS-273
IGROV-1 = system: IGROV-1
K562 = system: K562
KM12 = system: KM12
LXFL 529 = system: LXFL 529
M19-MEL = system: M19-MEL
NCI-H23 = system: NCI-H23
OVCAR-3 = system: OVCAR-3
SF-268 = system: SF-268
SF-539 = system: SF-539
SW-620 = system: SW-620
TK-10 = system: TK-10
OVCAR-5 = system: OVCAR-5
RXF 393 = system: RXF 393
DU-145 = system: DU-145
MDA-MB-231 = system: MDA-MB-231
MDA-MB-435 = system: MDA-MB-435
NCI/ADR-RES = system: NCI/ADR-RES
PC-3 = system: PC-3

Measured: GI50

NNC(=O)N/N=C(/CC1(O)C(=O)Nc2ccc(Br)cc21)c1ccccc1 (centres undefined)
inactive: CAKI-1 30.3 µM | DMS-273 28.4 µM | IGROV-1 41.1 µM | K562 30.5 µM | KM12 25.7 µM | LXFL 529 23.4 µM | M19-MEL 32.4 µM | NCI-H23 29 µM | OVCAR-3 41.8 µM | SF-268 21.5 µM | SF-539 23.9 µM | SW-620 50 µM | TK-10 55.6 µM

O=C(CC(=O)c1ccc([N+](=O)[O-])cc1)C(=O)Nc1nccs1
inactive: CAKI-1 > 100 µM | DMS-273 > 100 µM | IGROV-1 > 100 µM | K562 > 100 µM | KM12 > 100 µM | LXFL 529 > 100 µM | NCI-H23 > 100 µM | OVCAR-3 > 100 µM | OVCAR-5 > 100 µM | RXF 393 > 100 µM | SF-268 > 100 µM | SF-539 > 100 µM | SW-620 > 100 µM | TK-10 > 100 µM

Cc1nc(-c2cccnc2)sc1C(=O)/C=C/c1cccc([N+](=O)[O-])c1
inactive: CAKI-1 > 100 µM | DMS-273 > 100 µM | IGROV-1 > 100 µM | K562 > 100 µM | KM12 > 100 µM | M19-MEL > 100 µM | NCI-H23 > 100 µM | OVCAR-3 > 100 µM | OVCAR-5 > 100 µM | RXF 393 > 100 µM | SF-268 > 100 µM | SF-539 > 100 µM | SW-620 > 100 µM | TK-10 > 100 µM

O=C1C(c2ccccc2)=[N+]([O-])c2cc([N+](=O)[O-])ccc21
inactive: IGROV-1 22.4 µM | K562 22.8 µM | KM12 20.5 µM | M19-MEL 17.7 µM | NCI-H23 43.6 µM | OVCAR-3 18.2 µM | OVCAR-5 69.8 µM | RXF 393 15.9 µM | SF-268 19.7 µM | SF-539 25.5 µM | SW-620 60.3 µM | TK-10 20.1 µM

COc1cc(OC)c([C@@H]2OC(=O)C3C2C(=O)O[C@H]3c2cc(OC)c(OC)cc2OC)cc1OC (some centres undefined)
inactive: CAKI-1 > 100 µM | DMS-273 > 100 µM | IGROV-1 > 10 µM | K562 > 100 µM | KM12 > 100 µM | LXFL 529 > 100 µM | M19-MEL 70.1 µM | NCI-H23 > 100 µM | OVCAR-3 > 100 µM | RXF 393 > 100 µM | SF-539 > 100 µM | SW-620 > 10 µM

COC(=O)/C(=N/NC(C)(C)C)C(C(=O)OC)C(=O)C(=O)Nc1nc2ccc([N+](=O)[O-])cc2s1 (centres undefined)
inactive: CAKI-1 > 100 µM | IGROV-1 > 100 µM | K562 > 100 µM | KM12 > 100 µM | LXFL 529 > 100 µM | M19-MEL > 100 µM | NCI-H23 > 100 µM | OVCAR-3 > 100 µM | OVCAR-5 > 100 µM | SF-268 > 100 µM | SF-539 > 100 µM | SW-620 > 100 µM | TK-10 > 100 µM

C=CCCC(OCOCCOC)c1cc(C)c(O[Si](C)(C)C(C)(C)C)c(C)c1 (centres undefined)
inactive: IGROV-1 19.9 µM | K562 8.05 µM | KM12 13.5 µM | LXFL 529 22.8 µM | M19-MEL 17.9 µM | NCI-H23 14.5 µM | OVCAR-3 13.6 µM | OVCAR-5 17 µM | RXF 393 13.8 µM | SF-268 15.2 µM | SF-539 18.4 µM | SW-620 16 µM | TK-10 22 µM

C/C(=N\Nc1ccccc1)C(CN(C)C)C(c1ccccc1)c1c(O)c2ccccc2oc1=O (centres undefined)
inactive: CAKI-1 > 100 µM | DU-145 > 100 µM | IGROV-1 > 100 µM | K562 > 100 µM | KM12 > 100 µM | LXFL 529 > 100 µM | M19-MEL > 100 µM | MDA-MB-231 > 100 µM | MDA-MB-435 > 100 µM | NCI-H23 > 100 µM | NCI/ADR-RES > 100 µM | OVCAR-3 > 100 µM | OVCAR-5 > 100 µM | PC-3 > 100 µM | RXF 393 > 100 µM | SF-268 > 100 µM | SF-539 > 100 µM | SW-620 > 100 µM | TK-10 > 100 µM

O=S1(=O)OCCOS(=O)(=O)C1Cl
inactive: CAKI-1 > 100 µM | DMS-273 > 100 µM | IGROV-1 > 100 µM | K562 > 100 µM | KM12 > 100 µM | LXFL 529 > 100 µM | M19-MEL > 100 µM | NCI-H23 > 100 µM | OVCAR-3 > 100 µM | SF-268 > 100 µM | SF-539 > 100 µM | SW-620 > 100 µM | TK-10 > 100 µM

COc1ccc(/C(=N/O)C(c2ccc(OC)cc2)C2C(=O)Oc3ccccc32)cc1 (centres undefined)
inactive: CAKI-1 92 µM | IGROV-1 40 µM | K562 71.4 µM | KM12 83.4 µM | LXFL 529 36.3 µM | M19-MEL 68.5 µM | NCI-H23 40.3 µM | OVCAR-5 12.7 µM | SF-268 > 100 µM | SF-539 > 100 µM | SW-620 > 100 µM | TK-10 > 100 µM

N#CC(c1nc2ccccc2nc1Cl)S(=O)(=O)c1ccccc1 (centres undefined)
inactive: CAKI-1 51.3 µM | DMS-273 > 100 µM | K562 34.3 µM | KM12 > 100 µM | LXFL 529 46.6 µM | M19-MEL > 100 µM | NCI-H23 37.5 µM | OVCAR-3 > 100 µM | OVCAR-5 > 100 µM | SF-268 > 100 µM | SF-539 > 100 µM | SW-620 69.3 µM | TK-10 > 100 µM

COC(=O)C(C#N)C1NC(=O)c2ccccc21 (centres undefined)
inactive: DMS-273 > 100 µM | IGROV-1 > 100 µM | K562 > 100 µM | KM12 > 100 µM | M19-MEL > 100 µM | NCI-H23 > 100 µM | OVCAR-3 > 100 µM | OVCAR-5 > 100 µM | RXF 393 > 100 µM | SF-268 > 100 µM | SF-539 > 100 µM | SW-620 > 100 µM | TK-10 > 100 µM

BrC/C=C/C[P+](c1ccccc1)(c1ccccc1)c1ccccc1
inactive: DMS-273 2.44 µM | IGROV-1 55.5 µM | K562 2.43 µM | KM12 4.29 µM | LXFL 529 1.7 µM | M19-MEL 10.8 µM | NCI-H23 32.3 µM | OVCAR-3 7.28 µM | OVCAR-5 31 µM | SF-268 15.7 µM | SF-539 1.52 µM | SW-620 6.52 µM | TK-10 11.6 µM

Nc1n[n+](-c2ccccc2)no1
inactive: CAKI-1 24.7 µM | DMS-273 33.2 µM | IGROV-1 24.4 µM | K562 4.85 µM | KM12 10.1 µM | LXFL 529 5.26 µM | M19-MEL 46.2 µM | NCI-H23 65.3 µM | OVCAR-3 47.4 µM | OVCAR-5 40.7 µM | SF-268 42 µM | SF-539 51.4 µM | SW-620 45.8 µM | TK-10 > 100 µM

CC1(C)OC(=O)C(c2ccsc2)C(=O)O1
inactive: CAKI-1 > 100 µM | DMS-273 > 100 µM | K562 > 100 µM | KM12 > 100 µM | LXFL 529 > 100 µM | M19-MEL > 100 µM | NCI-H23 > 100 µM | OVCAR-3 > 100 µM | OVCAR-5 > 100 µM | RXF 393 > 100 µM | SF-268 > 100 µM | SF-539 > 100 µM | SW-620 > 100 µM | TK-10 > 100 µM

C1=CC=C2NCCSCC/N=C3/C=CC=CC=C3NCCSCC/N=C\2C=C1
inactive: CAKI-1 > 100 µM | DMS-273 > 100 µM | IGROV-1 > 100 µM | K562 > 100 µM | KM12 > 100 µM | LXFL 529 > 100 µM | M19-MEL > 100 µM | NCI-H23 > 100 µM | OVCAR-3 > 100 µM | OVCAR-5 > 100 µM | SF-268 > 100 µM | SW-620 > 100 µM | TK-10 > 100 µM

C=C1C(OC(C)=O)CC(OC(C)=O)C2(C)C(OC(C)=O)C(OC(C)=O)C3=C(C)C(OC(=O)/C=C/c4ccccc4)CC(C(OC(C)=O)C12)C3(C)C (centres undefined)
inactive: CAKI-1 33.1 µM | DMS-273 > 100 µM | IGROV-1 > 100 µM | K562 > 100 µM | KM12 > 100 µM | LXFL 529 51.9 µM | M19-MEL > 100 µM | OVCAR-5 > 100 µM | RXF 393 36.4 µM | SF-268 26.7 µM | SF-539 25.5 µM | SW-620 > 100 µM | TK-10 > 100 µM

CCc1ccccc1NC(=O)c1cccc([N+](=O)[O-])c1O
inactive: CAKI-1 25.1 µM | DMS-273 22.1 µM | IGROV-1 23 µM | K562 40.4 µM | KM12 18.1 µM | LXFL 529 36.4 µM | M19-MEL 23.6 µM | NCI-H23 18.7 µM | OVCAR-3 26.7 µM | OVCAR-5 17.9 µM | RXF 393 8.51 µM | SF-268 25.2 µM | SF-539 > 100 µM | SW-620 38.4 µM

CN(C)Cc1cc(/C(=C(\C#N)c2ccccc2)c2ccc(O)cc2)ccc1O
inactive: CAKI-1 20.9 µM | DMS-273 17.4 µM | IGROV-1 30.5 µM | K562 20 µM | KM12 19.9 µM | LXFL 529 18.2 µM | M19-MEL 16.9 µM | NCI-H23 19.1 µM | OVCAR-3 18.7 µM | OVCAR-5 26.2 µM | RXF 393 3.96 µM | SF-268 20 µM | SW-620 21 µM | TK-10 23 µM

CN(C)CCC1(C2=CCCC2)CC/C(=C\c2ccccc2Cl)C1=O (centres undefined)
inactive: IGROV-1 19.8 µM | K562 3.75 µM | KM12 12.9 µM | LXFL 529 11.5 µM | M19-MEL 33 µM | NCI-H23 15.2 µM | OVCAR-3 14.3 µM | OVCAR-5 15.7 µM | RXF 393 4.49 µM | SF-268 14.3 µM | SF-539 15.2 µM | SW-620 11.9 µM | TK-10 18.7 µM
